Key:
[1] = tested on: 53BP1 foci (DSBs) in A549 NSCLC; experiment: 53BP1 foci formation, A549; assay type: cell-based; conditions: A549, sub-lethal β-lap 3 μM for 2 h, monitored 24 h
Experimental: FIG. 3D. Graphical representation of average 53BP1 foci formation per nucleus at indicated treatment conditions: criz (1 μM), β-lap (3 μM), and DIC separately or in combination.
FIG. 3E Graph showing quantification of DSB formation (% cells with ≥5 53BP1 foci) following exposure of A549 shSCR vs shMET cells to indicated agents for 2 h (in red arrow), washed out and monitored up to 24 h to determine DSB repair kinetics.

Capan2 PDAC shMET cells = experiment: transwell migration and invasion, Capan2 shSCR vs shMET; assay type: cell-based; conditions: β-lap 2 μM 2 h, versus shSCR control
Experimental: FIG. 4-1D. Representative images from in vitro transwell migration assay comparing Capan2 shSCR and Capan2 shMET treated with vehicle control or sub-lethal β-lap (2 μM, 2 h). Images were taken at 16 h post-treatment.
FIG. 4-1E. Bar graph illustrating the percentage of Capan2 shSCR vs shMET PDAC cell migration at 16 h post-treatment with vehicle or sub-lethal β-lap (2 μM, 2 h). Two-way ANOVA was used for statistical analyses; * p<0.05; **** p<0.0001.
FIG. 4-1F. Representative images from in vitro transwell invasion assay comparing Capan2 shSCR and Capan-2 shMET treated with vehicle control or sub-lethal β-lap (2 μM, 2 h). Images were taken at 16 h post-treatment.
FIG. 4-1G. Bar graph illustrating the percentage of Capan2 shSCR vs shMET PDAC cell invasion at 16 h post-treatment with vehicle or sub-lethal β-lap (2 μM, 2 h). Two-way ANOVA was used for statistical analyses; * p<0.05; **** p<0.0001.
(§1) Overexpression of cMET in many cancers, including NSCLC and PDAC, is known to enhance cancer cell mobility, migration, and invasion (Spina, et al., Biomedicines 2015, 3(1), 71-88). […]

cancers with NQO1 = conditions: average, most cancers with NQO1; cited from earlier work
[2] = tested on: Vimentin protein expression in A549 shSCR; experiment: Western blot of Vimentin, A549 shSCR versus shMET; assay type: cell-based; conditions: sub-lethal β-lap 2 h, further reduced in shMET
Experimental: FIG. 4-1C. Western blot analysis of Vimentin protein expression in A549 shSCR versus shMET treated with vehicle control or non-lethal β-lap doses for 2 h.
Overexpression of cMET in many cancers, including NSCLC and PDAC, is known to enhance cancer cell mobility, migration, and invasion (Spina, et al., Biomedicines 2015, 3(1), 71-88). […] Thus, we investigated whether treatment with non-lethal β-lap in combination with inhibition of cMET activity (i.e., via pharmacological or genetic interventions) can target and mitigate cancer invasion or migration using Boyden chamber (Chen, Methods Mol Biol 2005, 294, 15-22; Eccles, et al., Biotechnol Annu Rev 2005, 11, 391-421) and wound-healing (Liang, et al., Nat Protoc 2007, 2(2), 329-33) assays. […] Likewise, we noted a decrease in the expression of a transcription factor that promotes invasion and migration, Twist (Khan et al., Tumour Biol 2013, 34(5), 2497-506), with the combination treatment relative to vehicle control (FIG. 4E, G). Addition of DIC to the combination treatment reverted Twist and E-cadherin protein expression to almost similar level as vehicle-treated control. shRNA mediated knockdown of cMET expression in A549 and Capan2 decreased their migratory and invasive phenotypes relative to their corresponding shSCR controls, which is consistent with the canonical role of cMET in invasive cancers. […]

A549 shMET = experiment: migration and invasion, A549 shSCR versus shMET; assay type: cell-based; conditions: β-lap 3 μM 2 h, p<0.001
Experimental: FIG. 4H. Representative images of A549 shSCR versus shMET migration at 16 h following treatments with DMSO-treated control and β-Lap (3 μM) for 2 h. Scale bars, 50 μm;
FIG. 4I. Bar graph showing quantification of cell migration expressed as a percent of control (vehicle). Quantitative data were shown as the mean±SEM. **** p<0.0001, ** p<0.01, *p<0.05, ns=not significant.
FIG. 4J. Representative images of A549 shSCR versus shMET invasion using a matrigel-coated transwell system at 16 h following treatments with DMSO-treated control and β-Lap (3 μM) for 2 h. Scale bars, 50 μm;
FIG. 4K. Bar graph showing quantification of cell invasion expressed as a percent of control (vehicle). Quantitative data were shown as the mean±SEM. **** p<0.0001, ** p<0.01, *p<0.05, ns=not significant.
FIG. 4-1B. Bar graph illustrating percentage wound closure at indicated time points in A549 shSCR versus shMET treated with vehicle control or non-lethal β-lap for 2 h. Two-way ANOVA was used for statistical analyses; * p<0.05.
as §1

A549 NSCLC cells = experiment: long-term cell survival assay, A549; assay type: cell-based; conditions: sub-lethal crizotinib (2 μM) 2 h pre-treatment, then criz ± β-lap 2 h, ~7 days, DER >1 = synergistic
Experimental: FIG. 1B. […] LC50 values were calculated from long-term cell survival graphs using GraphPad PRISM; ND denotes Not Determined even at the highest concentration presented. All error bars represent the mean±SEM. **** p<0.0001, *** p<0.001, ** p<0.01, *p<0.05.
FIG. 1C. […] LC50 values were calculated from long-term cell survival graphs using GraphPad PRISM; ND denotes Not Determined even at the highest concentration presented. All error bars represent the mean±SEM. **** p<0.0001, *** p<0.001, ** p<0.01, *p<0.05.

CC1(C)CCC2=C(O1)c1ccccc1C(=O)C2=O [β-lap, β-Lapachone]
DSB formation and repair [1]: induced formation of DSBs that were easily repaired | cell invasion (Capan2 PDAC shMET cells): significantly reduced | cell migration (Capan2 PDAC shMET cells): significantly reduced | LD50 (cancers with NQO1): 3.0 to 6.0 µM | Vimentin expression [2]: decreased Vimentin expression | cell invasion (A549 shMET): significantly reduces | cell migration (A549 shMET): significantly reduces | DERLC50 (dose-enhancement ratio) of β-lap (A549 NSCLC cells): 6.6

Reference: patent US20240197709A1, “POTENTIATING THE TUMOR-SELECTIVE EFFECTS OF NQO1-BIOACTIVATABLE AGENT BY USE OF CMET INHIBITOR” (The Trustees of Indiana University, priority 2022, published 2024)
